Results on 2 compounds are retold here after US20240285497A1, “METHOD FOR EVALUATING AN ABILITY OF A TEST SAMPLE TO TRIGGER A FOREIGN BODY REACTION IN THE SKIN, A METHOD FOR SCREENING A SUBSTANCE HAVING AN ABILITY TO INHIBIT A FOREIGN BODY REACTION IN THE SKIN, AND AN AGENT FOR INHIBITING A FOREIGN BODY REACTION IN THE SKIN” (priority 2021, published 2024).

One assay concerns artemin mRNA. In words: Artemin mRNA expression in HaCaT cells contacted with FICZ, quantitative PCR. It is filed as cell-based, human. Conditions: 24 hours; for expression level of artemin mRNA compared to cells without FICZ: no Fraglide-1. How it is done:
First, HaCaT cells (CLI; Catalogue No.: 300493) were suspended in a DMEM medium at the density of 1×10^5 cell/mL, and 100 μL of the thus obtained suspension was added to each well of white 96 well plates (Thermo Fisher Scientific, MA, U.S.A.; Catalogue No.: 136102) so that the number of the cells in each well was 10,000 cells/well. In accordance with a conventional method, the cells were incubated at 37° C. for 24 hours in the presence of 5% CO2. Thereafter, the DMEM medium was removed, and 100 μL of a new DMEM medium containing FICZ at a predetermined concentration (i.e., 5 nM, 50 nM, 500 nM, and 5,000 nM) was added, followed by further incubation for 24 hours at 37° C. and 5% CO2. Meanwhile, negative controls were prepared by adding 100 μL of a DMEM medium containing no FICZ instead of the DMEM medium containing FICZ, which were also incubated for 24 hours at 37° C. and 5% CO2.
After the above-described incubation for 24 hours, total RNA was extracted and cDNA was prepared using a PCR kit “SuperPrep II Cell Lysis & RT Kit for qPCR” (Catalogue No.: SCQ-401) manufactured by Toyobo Co., Ltd. (Osaka, Japan) in accordance with a method described in the manual attached to the kit. Briefly, after the above-described incubation for 24 hours, cell culture medium was removed from each well and the cells were washed with PBS (Phosphate-buffered saline). Thereafter, each well was added with 10 μL of a lysis reagent, which was prepared by mixing 58.7 μL of “Lysis solution”, 0.3 μL of “gDNA Remover” and 1 μL of “RNase Inhibitor” attached to the above PCR kit. The cell culture plate was shaken for about 30 seconds, and allowed to stand at room temperature for 5 minutes, to obtain a cell lysate containing total RNA that can be used as a template for reverse transcription reaction. Herein, “Lysis Solution” was a cell lysis agent to lyse cells; “gDNA remover” was a reagent containing DNase I that degrades genome DNA; and “RNase Inhibitor” was a reagent to inhibit degradation of RNA by cellular components such as RNase, etc.
Next, cDNA was synthesized from the extracted RNA by reverse transcription. Firstly, a master mix for reverse transcription reaction was prepared by mixing 8 μL of “5×RT Master Mix” and 24 μL of “Nuclease-free water”, which were attached to the above PCR kit “SuperPrep II Cell Lysis & RT Kit for qPCR” manufactured by Toyobo Co., Ltd. (Osaka, Japan). Preparation of the master mix for reverse transcription reaction was carried out on ice. In a PCR tube, 32 μL of the obtained master mix was dispensed and then 8 μL of the above cell lysate present in each well was added to make a total volume 40 μL, which was used for the following reverse transcription reaction. The reverse transcription reaction was carried out under the conditions of 37° C. for 15 mins, 50° C. for 5 mins, and 98° C. for 5 mins. The thus obtained cDNA solution was added with 80 μL of sterile water and then frozen at −20° C. for storage.
Quantitative PCR was carried out by using THUNDERBIRD Next SYBR qPCR Mix (Toyobo Co., Ltd., Osaka, Japan; Catalogue No. QPX-201) and StepOne Real-Time PCR System (Thermo Fisher Scientific, MA, USA). […] The reaction solution was used for quantitative PCR. Based on Ct (cycle threshold) value obtained by quantitative PCR, an amount of mRNA of each target gene was obtained. […]

In assay [1] the test system is matrix metalloprotease 9 (MMP9) mRNA. In words: MMP9 mRNA expression in HaCaT cells contacted with test substance, quantitative PCR. It is filed as cell-based, human. Conditions: HaCaT cells, 24 hours. How it is done:
In this experiment, the effect of Fraglide-1 on the expression of MMP9 in the level of mRNA was examined first. Specifically, HaCaT cells were treated with Fraglide-1 in the same manner as described in Experiment 3-1 except that HaCaT cells were incubated for 24 hours in the medium containing 0 μM, 1 μM, 10 μM, and 100 μM of Fraglide-1 instead of being incubated for 24 hours in the medium containing both FICZ and Fraglide-1. The total RNA was then extracted, cDNA was prepared, and the quantitative PCR was performed using the obtained cDNA. Herein, the procedure of the quantitative PCR was the same as described in Experiment 3-1 except that the primers shown in below Table 4 were used. In this experiment, the expression of MMP2 mRNA was also quantified in addition to MMP9 mRNA. MMP2 is known as a MMP which is not transcriptionally regulated by a xenobiotic responsive element (XRE).
In FIG. 9 and FIG. 10, the results obtained for each sample were shown as a relative value, with the mRNA expression level of MMP9 or MMP2 in the HaCaT cells incubated for 24 hours in DMEM medium without […] (i.e., the non-treated HaCaT cells) set to 1. The results shown in FIG. 9 and FIG. 10 were the mean obtained from three independent experiments. The error bars represent the standard deviation (SD).
Next, experiments were performed to inhibit MMP9 and MMP2 in HaCaT cells using retinoic acid (CAS RN: 302-79-4) and nicotinamide (CAS RN: 98-92-0), which are known to be substances having anti-wrinkle effect. Briefly, HaCaT cells were made in contact with retinoic acid and nicotinamide in the same manner as in Experiment 4-1 except that retinoic acid and nicotinamide were used instead of Fraglide-1. Then, the total RNA was extracted, cDNA was prepared, and the quantitative PCR was carried out using the obtained cDNA.
In FIG. 12 and FIG. 13, the results obtained for each sample were shown as a relative value, with the mRNA expression level of MMP9 or MMP2 in the HaCaT cells incubated for 24 hours in DMEM medium containing neither retinoic acid nor nicotinamide (i.e., the non-treated HaCaT cells) set to 1. The results shown in FIG. 12 and FIG. 13 were the mean obtained from three independent experiments. The error bars represent the standard deviation (SD).

As for 6-formylindolo[3,2-b] carbazole [FICZ], the “expression level of artemin mRNA compared to cells without FICZ” value was “about 3.0 fold” in the assay on artemin mRNA (HaCaT cells, 500 nM FICZ) and ~3.7 fold in the assay with artemin mRNA (HaCaT cells, 5,000 nM FICZ). Also, the “concentration necessary to observe a significant increase in the expression level of artemin mRNA” value with artemin mRNA (HaCaT cells) is on record as “at least 500 nM”. The “change in expression level of artemin mRNA” value in the assay on artemin mRNA (HaCaT cells, FICZ 50 nM or lower) is “no change was observed”. In the assay with artemin mRNA (HaCaT cells, FICZ 5-5,000 nM), the “expression level of artemin mRNA, dependence on concentration” value was “increased along with the concentration of FICZ”.

With `O=C1C=C(c2ccccc2)C(O)O1` (centres unmarked) [Fraglide-1, 5-hydroxy-4-phenyl-2(5H)butenolide], the “decrease of expression level of MMP9 mRNA compared to medium without Fraglide-1” value in assay [1] (1 μM) is “approximately 42%”; in assay [1] (10 μM) it was ~52%; in assay [1] (100 μM) it was ~80%.
